Assay results taken from patent publication US20050282757A1, “Peptide boronic acid compounds useful in anticoagulation” (Trigen Limited, priority 2002, published 2005).
Several values for one entry are separate records, joined by “and”; a condition that tells them apart may be missing. Identical values can stand only once. Entries after “also recorded” stand apart in the source; their conditions may differ. Marks after values point to notes of the source that are not given here.

Key:
thrombin time and APTT = experiment: Oral administration in dog, PK/PD (Example 45)
Method: Three female and three male dogs were used for each leg of the study. The weight range of the dogs was 8-18 kg.
The PD was measured as thrombin time and APTT using an automated coagulometer. Plasma concentrations were measured using an LCMS/MS method.
The dose was tailored on an individual basis for each dog.

thrombin time [1] = experiment: Oral absorption in rat, thrombin time (Example 43); assay type: in vivo, male Wistar rats; details: 20 mg/kg oral gavage
Method: The procedure of Example 42 was followed.
The per-oral studies were performed using male Wistar rats, approximately 8 weeks of age and weighing between 250 and 300 g.
Food was withheld overnight prior to dosing and returned approximately 2 hours post-dose. Water was available adlibitum.
Each animal received a single administration of control or test article by oral gavage, using a constant dose volume of 4 mL/kg.
Individual dose volumes were based on individual body weights, obtained on the day of dosing.
(§1) Approximately 0.6 mL of blood was collected via a tail vein into 3.8% tri sodium citrate tubes approximately 48 hours prior to dosing and again at 0.5, 1, 2, 4 and 8 hours post-dose.
(§2) Plasma was prepared by centrifugation at […] for 10 minutes at 4° C. Plasma was stored frozen (nominally −20° C.) prior to analysis in an automated coagulometer.

thrombin time [2] = experiment: Intraduodenal absorption in rat, thrombin time (Examples 42 and 44); assay type: in vivo, male Wistar rats; design: Mean increase in thrombin time / Thrombin time increase: unit not given here; details: for Group mean thrombin time (s ± sd): 20 mg/kg intraduodenal
Method: • Place 10 mg of the relevant compound in an Eppendorf cup • Add 0.5 mL ethanol and shake for 10 minutes • Sonicate for 10 minutes • Add 1.5 mL of buffer • Shake for additional 15 minutes • Resulting target concentration: 5 mg/mL B. Intraduodenal Studies
The intraduodenal studies were performed using male Wistar rats, approximately 8 weeks of age and weighing between 250 and 300 g.
Food was withheld overnight prior to dosing and returned approximately 2 hours post-dose. Water was available ad libitum.
Animals were anaesthetised using gaseous halothane. A small incision was made in the abdomen and the duodenum located. Each animal received a single administration of control or test article by injection directly into the duodenum, using a constant dose volume of 4 mL/kg. Following administration the incision was closed using surgical staples.
Individual dose volumes were based on individual body weights, obtained on the day of dosing. Treatments employed for the study were as follows:
as §1, §2
The thrombin times determined in example 42 were analysed to determine the standard deviation for increase in thrombin time, expressed as a percentage of the mean value (this is sometimes called the ‘coefficient of variation’).

Thrombin Time (TT) = experiment: Oral administration of TGN 167 tablets to healthy male subjects (Example 47); assay type: in vivo, human
Method: TGN 167 tablets described above were administered via the oral route to 10 healthy male subjects as single doses (randomised double blind placebo controlled study). The group consisted of 10 healthy male volunteers, 9 of whom received active compound and one of whom received placebo. An amendment was introduced for the last panel, allowing 15 subjects (instead of 9) to receive a 600 mg dose. The interval between each dose of TGN 167 was one week minimum. The allocation of the placebo was such that each volunteer would only receive placebo once during the course of the study.
Orally administered doses were: 75 mg (one tablet), 150 mg (two tablets), 300 mg (four tablets) and 600 mg (eight tablets).

[3] = Comparative storage stability of sodium and calcium salts (Example 49); assay type: physicochemical; details: for Tri50c (w/w %, LOD corr.): corrected for loss on drying
From the text: In both studies the active pharmaceutical ingredient was stored in grip sealed double bags within a PE/PP screw cap closed cylinder.

[4] = Stability in enteric-coated hard gelatin capsules, HPLC-PDA (Example 41); assay type: physicochemical; details: for Amount of Tri50c: 10 mg content in 10 ml
Method: TRI 50c-standard (free acid) was stored in a desiccator over phosphorus pentoxide for 2 days for drying. Afterwards, the reference standard was weighed in a volumetric flask and dissolved in a mixture of acetonitrile and water (25/75 v/v %). Aliquots of the resulting solution (ST 1A) were diluted successively with water as shown in the dilution scheme of table 4.
The stored capsules of every batch at corresponding climatic condition were removed and 10 mg of the content was weighed in a 10 ml volumetric flask and dissolved in 10 ml of a mixture of acetonitrile/water (25/75 v/v %). These solutions were injected for impurity profile analysis and for quantification respectively.
The quantitative evaluation and the impurity profile analysis were performed using an HPLC-PDA method. The processing wavelength was set as 258 nm.

[5] = individual rats dosed intraduodenally, listed as Ca Salt, hemicalcium salt, in s
[6] = capsules (no blister) 40° C./75% r.h.
[7] = capsules in blister 25° C./60% r.h.
[8] = capsules in blister 40° C./75% r.h.

## COCCC[C@H](NC(=O)[C@@H]1CCCN1C(=O)[C@@H](Cc1ccccc1)NC(=O)OCc1ccccc1)B([O-])O.COCCC[C@H](NC(=O)[C@@H]1CCCN1C(=O)[C@@H](Cc1ccccc1)NC(=O)OCc1ccccc1)B([O-])O.[Ca+2] [TRI 50c calcium salt, Cbz-(R)-Phe-(S)-Pro-(R)-Mpg-B(OH)2 hemicalcium salt]
Thrombin time and APTT
  mean thrombin clotting time 8 hours post dose: 20.2 s
  time of peak thrombin time post dose: three hours post dose
Thrombin time and APTT; 3 hours following administration, from 14.5 seconds
  mean APTT at peak: 18 s
Thrombin time and APTT; base line 15 seconds (calcium salt), 15.4 seconds (TRI 50c)
  mean thrombin clotting time at peak (C max): 80.5 s
Thrombin time and APTT; enterically coated gelatine capsules
  tolerance: tolerated well with no adverse events
Thrombin time and APTT; estimated from thrombin clotting times
  estimated bioavailability in some animals: ≤ 50%
Thrombin time and APTT; estimated from thrombin clotting times, including two lower responders
  mean estimated bioavailability: 25%
Thrombin time and APTT; individual dogs
  peak thrombin clotting times achieved by all dogs: up to 148 seconds
Thrombin time [1]; 0.5 hour
  Group mean thrombin times (s ± sd): 25.9 ± 3.05 s
Thrombin time [1]; 1 hour
  Group mean thrombin times (s ± sd): 25.7 ± 1.94 s
Thrombin time [1]; 2 hour
  Group mean thrombin times (s ± sd): 24.3 ± 0.98 s
Thrombin time [1]; 4 hour
  Group mean thrombin times (s ± sd): 25.0 ± 1.31 s
Thrombin time [1]; 8 hour
  Group mean thrombin times (s ± sd): 22.9 ± 3.46 s
Thrombin time [1]; −48 hour (pre-dose)
  Group mean thrombin times (s ± sd): 23.4 ± 1.25 s
Thrombin time [2]; 0.5 hour
  Group mean thrombin time (s ± sd): 42.0 ± 6.74 s
Thrombin time [2]; 1 hour
  Group mean thrombin time (s ± sd): 34.0 ± 1.89 s
Thrombin time [2]; 2 hour
  Group mean thrombin time (s ± sd): 22.6 ± 5.10 s
Thrombin time [2]; 4 hour
  Group mean thrombin time (s ± sd): 24.4 ± 2.41 s
Thrombin time [2]; 8 hour
  Group mean thrombin time (s ± sd): 22.4 ± 1.73 s
Thrombin time [2]; −48 hour (pre-dose)
  Group mean thrombin time (s ± sd): 21.6 ± 1.77 s
Thrombin time [2]; 0.5 h minus 0 h, intraduodenal
  Mean increase in thrombin time: 20.50
Thrombin time [2]; [5]
  Thrombin time, 0 h: 21.97 and 18.75 and 23.57 and 21.57
  Thrombin time, 0.5 h: 35.32 and 45.98 and 37.27 and 49.30
Thrombin time [2]; individual rats, 0.5 h minus 0 h, listed as Ca Salt, hemicalcium salt
  Thrombin time increase: 13.35 and 27.23 and 13.70 and 27.73
Thrombin Time (TT); oral 75, 150, 300, 600 mg
  safety assessments: No clinically significant findings
Thrombin Time (TT); oral tablets
  time after administration at which all TT had returned to baseline: 10 h
Thrombin Time (TT); oral tablets 75-600 mg
  effect on thrombin time (TT): dose-related increase in the Thrombin Time (TT)
Thrombin Time (TT); study period of 24 hours, any dose
  adverse clinical events: no adverse clinical events of either a general or cardiovascular nature
[3]; T = 0
  Color: white
  TRI 50c (% peak area): 99.4 % peak area
  Tri50c (w/w %, LOD corr.): 99.7 w/w %
[3]; T = 0, hemicalcium salt
  Appearance: powdery,; also recorded: odourless
[3]; T = 1, 25° C./60% r.h.
  Appearance: powdery
  Color: white
  TRI 50c (% peak area): 98.3 % peak area
  Tri50c (w/w %, LOD corr.): 101.5 w/w %
[3]; T = 1, 40° C./75% r.h.
  Appearance: powdery
  Color: white
  TRI 50c (% peak area): 95.2 % peak area
  Tri50c (w/w %, LOD corr.): 100.6 w/w %
[3]; T = 1, −20° C.
  Appearance: powdery
  Color: white
  TRI 50c (% peak area): 99.1 % peak area
  Tri50c (w/w %, LOD corr.): 102.7 w/w %
[3]; T = 3, 25° C./60% r.h.
  Appearance: powdery
  Color: white
  TRI 50c (% peak area): 97.5 % peak area
  Tri50c (w/w %, LOD corr.): 104.3 w/w %
[3]; T = 3, 40° C./75% r.h.
  Appearance: powdery
  Color: white
  TRI 50c (% peak area): 71.2 % peak area
  Tri50c (w/w %, LOD corr.): 82.0 w/w %
[3]; T = 3, −20° C.
  Appearance: powdery
  Color: white
  TRI 50c (% peak area): 99.2 % peak area
  Tri50c (w/w %, LOD corr.): 103.0 w/w %
[3]; T = 12, 25° C./60% r.h.
  TRI 50c (% peak area): 96.9 % peak area
  Tri50c (w/w %, LOD corr.): 94.8 w/w %
[4]; [6]
  Benzaldeh. % Area in impurity profile: 3.64 % Area
  Imp.I % Area in impurity profile: 0.84 % Area
  Amount of Tri50c: 780.097 µg/mL
[4]; [7]
  Benzaldeh. % Area in impurity profile: 1.29 % Area
  Amount of Tri50c: 930.903 µg/mL
[4]; [8]
  Benzaldeh. % Area in impurity profile: 2.37 % Area
  Amount of Tri50c: 786.223 µg/mL
[4]; capsules in blister, 1.5 month 25° C./60% r.h., hemicalcium salt
  Purity (HPLC % Area) T1: 98.0 HPLC % Area
[4]; capsules in blister, 1.5 month 25° C./60% r.h., listed as TRI50C Ca Salt, hemicalcium salt
  Purity (HPLC % Area) T1: 98.02 HPLC % Area
[4]; capsules in blister, 1.5 month 40° C./75% r.h., hemicalcium salt
  Purity (HPLC % Area) T1: 97.2 HPLC % Area
[4]; capsules in blister, 1.5 month 40° C./75% r.h., listed as TRI50C Ca Salt, hemicalcium salt
  Purity (HPLC % Area) T1: 97.19 HPLC % Area
[4]; capsules without blister, 1.5 month 40° C./75% r.h., hemicalcium salt
  Purity (HPLC % Area) T1: 95.0 HPLC % Area
[4]; capsules without blister, 1.5 month 40° C./75% r.h., listed as TRI50C Ca Salt, hemicalcium salt
  Purity (HPLC % Area) T1: 94.96 HPLC % Area
[4]; purity of the batch before storage, hemicalcium salt
  Purity (HPLC % Area) T0: 99.2^2) HPLC % Area and 99.2^2 HPLC % Area
